Reference: ChEMBL document CHEMBL1154460, “Tryptophan-containing dipeptide derivatives as potent PPARgamma antagonists: design, synthesis, biological evaluation, and molecular modeling” (Eur J Med Chem, 2008)
Activity calls are given as the source filed them. No cut-off for these calls is given here. Non-standard residues stand in square brackets, D forms with d. Residues, ends and D or L forms follow the SMILES beside them. *: point of attachment. 2Nal = N[C@@H](Cc1ccc2ccccc2c1)C(=O)O; Aad = N[C@@H](CCCC(=O)O)C(=O)O; OBn = c1ccc(CO*)cc1

Biological target: T1, Peroxisome proliferator-activated receptor gamma (Homo sapiens, UniProt P37231)
T1 sequence (P37231 whole entry): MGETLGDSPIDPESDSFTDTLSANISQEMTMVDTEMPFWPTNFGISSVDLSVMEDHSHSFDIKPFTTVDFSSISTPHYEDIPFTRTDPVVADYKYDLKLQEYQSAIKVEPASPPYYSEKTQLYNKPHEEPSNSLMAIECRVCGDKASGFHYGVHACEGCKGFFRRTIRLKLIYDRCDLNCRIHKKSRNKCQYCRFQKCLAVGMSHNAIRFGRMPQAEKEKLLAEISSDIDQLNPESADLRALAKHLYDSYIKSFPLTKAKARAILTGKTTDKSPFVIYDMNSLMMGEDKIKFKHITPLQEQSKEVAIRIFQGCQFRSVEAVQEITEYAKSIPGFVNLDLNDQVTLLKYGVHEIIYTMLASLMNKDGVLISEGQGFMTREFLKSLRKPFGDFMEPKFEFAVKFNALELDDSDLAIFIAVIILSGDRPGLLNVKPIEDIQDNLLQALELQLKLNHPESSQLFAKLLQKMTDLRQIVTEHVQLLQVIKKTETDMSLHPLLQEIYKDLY
Test: Antagonist activity at human PPARgamma receptor expressed in Saccharomyces cerevisiae AH109 co-transfected with mouse CBP assessed as inhibition of rosiglitazone-induced LBD-CBP interaction by alpha-galactosidase based yeast two hybrid assay
Format: functional

| SMILES | IC50 [µM] |
| --- | --- |
| CC(C)(c1ccc(OCC2CO2)cc1)c1ccc(OCC2CO2)cc1 (configuration not stated) | 100 |
| O=C(Nc1ccccc1)c1cc([N+](=O)[O-])ccc1Cl | 3.3 |
| N[C@@H](Cc1c[nH]c2ccccc12)C(=O)N[C@@H](CCC(=O)O)C(=O)O | 8.67 |
| O=C(O)C(Oc1cccc(C(F)(F)F)c1)c1ccc(Cl)cc1 (configuration not stated) | 0.22 |
| C=CCn1cc([N+](=O)[O-])s/c1=N\C(=O)C(C)(C)C | 0.82 |
| N[C@@H](Cc1c[nH]c2ccccc12)C(=O)N[C@@H](CC(=O)O)C(=O)O | 5.2 |
| N=C(N)NCCC[C@H](NC(=O)[C@@H](N)Cc1c[nH]c2ccccc12)C(=O)O (H-Trp-Arg-OH) | 15.4 |
| NC(=O)C[C@H](NC(=O)[C@@H](N)Cc1c[nH]c2ccccc12)C(=O)O (H-Trp-Asn-OH) | 18.4 |
| NC(=O)CC[C@H](NC(=O)[C@@H](N)Cc1c[nH]c2ccccc12)C(=O)O (H-Trp-Gln-OH) | 18.7 |
| CC(C)C[C@H](NC(=O)[C@@H](N)Cc1c[nH]c2ccccc12)C(=O)O (H-Trp-Leu-OH) | 25.8 |
| N[C@@H](Cc1c[nH]c2ccccc12)C(=O)N[C@@H](CCCC(=O)O)C(=O)O (H-Trp-[Aad]-OH) | 15.1 |
| CC(=O)NCCOC(=O)C(Oc1cccc(C(F)(F)F)c1)c1ccc(Cl)cc1 (configuration not stated) [HALOFENATE] | 40 |
| COP(=O)(OC)OC(c1ccc(Cl)cc1)P(=O)(OC)OC (configuration not stated) [MIFOBATE] | 140 |

Biological target: T2, Peroxisome proliferator-activated receptor gamma (Homo sapiens) (UniProt P37231)
T2 sequence (whole entry): T1 sequence (P37231 whole entry)
Test: Antagonist activity at human PPARgamma receptor expressed in Saccharomyces cerevisiae AH109 co-transfected with mouse CBP assessed as inhibition of rosiglitazone-induced LBD-CBP interaction at 10 uM by alpha-galactosidase based yeast two hybrid assay
Format: functional

| SMILES | inhibition |
| --- | --- |
| N[C@@H](Cc1c[nH]c2ccccc12)C(=O)N[C@@H](CCC(=O)O)C(=O)O | 43.2% |
| N[C@@H](Cc1c[nH]c2ccccc12)C(=O)N[C@@H](CC(=O)O)C(=O)O | 57.8% |
| COC(=O)CCC[C@H](NC(=O)[C@H](N)Cc1ccccc1)C(=O)OC | inactive |
| COC(=O)CC[C@@H](NC(=O)[C@@H](N)Cc1c[nH]c2ccccc12)C(=O)OC | inactive |
| COC(=O)CC[C@H](NC(=O)[C@@H](N)Cc1c[nH]c2ccccc12)C(=O)OC | 4.05% |
| COC(=O)CC[C@H](NC(=O)[C@@H](N)Cc1ccccc1)C(=O)OC | 3.99% |
| COC(=O)CC[C@H](NC(=O)[C@H](N)Cc1ccccc1)C(=O)OC | inactive |
| COC(=O)C[C@H](NC(=O)[C@H](N)Cc1ccccc1)C(=O)OC | inactive |
| COC(=O)[C@H](C)NC(=O)[C@@H](N)Cc1ccccc1 | inactive |
| COC(=O)[C@H](CC(C)C)NC(=O)[C@H](N)Cc1ccccc1 | inactive |
| N[C@@H](Cc1c[nH]c2ccccc12)C(=O)N[C@H](CC(=O)O)C(=O)O | 15.5% |
| N[C@@H](Cc1c[nH]c2ccccc12)C(=O)N[C@H](CCC(=O)O)C(=O)O | 0.4% |
| N[C@@H](Cc1c[nH]c2ccccc12)C(=O)N[C@H](CCC(=O)OCc1ccccc1)C(=O)OCc1ccccc1 | inactive |
| N[C@H](Cc1c[nH]c2ccccc12)C(=O)N[C@@H](CC(=O)O)C(=O)O | 0.68% |
| N[C@H](Cc1c[nH]c2ccccc12)C(=O)N[C@H](CC(=O)O)C(=O)O | 0.42% |
| N[C@@H](Cc1ccccc1)C(=O)N[C@@H](CC(=O)OCc1ccccc1)C(=O)OCc1ccccc1 (H-Phe-Asp(OBn)-OBn) | inactive |
| N[C@@H](Cc1ccccc1)C(=O)N[C@@H](CC(=O)O)C(=O)O (H-Phe-Asp-OH) | 1.12% |

| SMILES | inhibition |
| --- | --- |
| N[C@@H](Cc1ccccc1)C(=O)N[C@@H](CCC(=O)OCc1ccccc1)C(=O)OCc1ccccc1 (H-Phe-Glu(OBn)-OBn) | inactive |
| N[C@@H](Cc1ccccc1)C(=O)N[C@@H](CCC(=O)O)C(=O)O (H-Phe-Glu-OH) | 4.3% |
| N=C(N)NCCC[C@H](NC(=O)[C@@H](N)Cc1c[nH]c2ccccc12)C(=O)O (H-Trp-Arg-OH) | 45% |
| NC(=O)C[C@H](NC(=O)[C@@H](N)Cc1c[nH]c2ccccc12)C(=O)O (H-Trp-Asn-OH) | 36.3% |
| N[C@@H](Cc1c[nH]c2ccccc12)C(=O)N[C@@H](CC(=O)OCc1ccccc1)C(=O)OCc1ccccc1 (H-Trp-Asp(OBn)-OBn) | 5.33% |
| COC(=O)C[C@H](NC(=O)[C@@H](N)Cc1c[nH]c2ccccc12)C(=O)OC (H-Trp-Asp(OMe)-OMe) | inactive |
| NC(=O)CC[C@H](NC(=O)[C@@H](N)Cc1c[nH]c2ccccc12)C(=O)O (H-Trp-Gln-OH) | 38.6% |
| CC(C)C[C@H](NC(=O)[C@@H](N)Cc1c[nH]c2ccccc12)C(=O)OCc1ccccc1 (H-Trp-Leu-OBn) | inactive |
| CC(C)C[C@H](NC(=O)[C@@H](N)Cc1c[nH]c2ccccc12)C(=O)O (H-Trp-Leu-OH) | 58.2% |
| COC(=O)[C@H](CC(C)C)NC(=O)[C@@H](N)Cc1c[nH]c2ccccc12 (H-Trp-Leu-OMe) | 5.29% |
| COC(=O)CCC[C@H](NC(=O)[C@@H](N)Cc1c[nH]c2ccccc12)C(=O)OC (H-Trp-[Aad](OMe)-OMe) | 8.74% |
| N[C@@H](Cc1c[nH]c2ccccc12)C(=O)N[C@@H](CCCC(=O)O)C(=O)O (H-Trp-[Aad]-OH) | 70% |
| COC(=O)CC[C@H](NC(=O)[C@@H](N)Cc1ccc(OC)cc1)C(=O)OC (H-Tyr(Me)-Glu(OMe)-OMe) | 5.26% |
| N[C@@H](Cc1ccc2ccccc2c1)C(=O)N[C@@H](CCC(=O)OCc1ccccc1)C(=O)OCc1ccccc1 (H-[2Nal]-Glu(OBn)-OBn) | 27.7% |
| COC(=O)CC[C@H](NC(=O)[C@@H](N)Cc1ccc2ccccc2c1)C(=O)OC (H-[2Nal]-Glu(OMe)-OMe) | 14.7% |
| N[C@@H](Cc1ccc2ccccc2c1)C(=O)N[C@@H](CCC(=O)O)C(=O)O (H-[2Nal]-Glu-OH) | 2.1% |
| COC(=O)[C@H](CC(C)C)NC(=O)[C@@H](N)Cc1ccc2ccccc2c1 (H-[2Nal]-Leu-OMe) | 4.34% |
